These are literature values, as cited in patent publication US10226042B2, “Synergistic pre-emergent and post-emergent weed control compositions and methods of use thereof” (BAYER INTELLECTUAL PROPERTY GMBH, priority 2009, dated 2019).

For this series the following is noted: stated in words, no test described.

Regarding `O=C(O)COc1ccc(Cl)cc1Cl` [2,4-D], the water solubility entry is listed as “water soluble”. Regarding `COc1c(Cl)ccc(Cl)c1C(=O)O` [dicamba], the water solubility entry is “water soluble”.
